# Where two headings read alike, the source gives them in different places.
# What was measured:
# [1] = target: T1, transcriptional switch components containing FKBP and 2098L mutant FRB domains (Homo sapiens, UniProt P42345+P62942); test: transcription assay in engineered HD1080 cells expressing SEAP (txn 2098L); assay type: cell-based; conditions: for TXN 2098L peak relative to rapamycin peak: superscript mark on EC50 cell
# T1 construct: transcriptional switchcomponents containing FKBP and 2098L mutant FRB domains, respectively; fused on or other part: The two switch components are separate chimeric proteins; Neither is given for this cell line
# Text: The ability of the rapalogs to multimerize chimeric proteins may be measured in cell-based assays by measuring the occurrence of an event triggered by such multimerization. For instance, one may use cells containing and capable of expressing DNA encoding a first chimeric protein comprising one or more FKBP-domains and one or more effector domains as well as DNA encoding a second chimeric protein containing an FRB domain and one or more effector domains capable, upon multimerization, of actuating a biological response. We prefer to use cells which further contain a reporter gene under the transcriptional control of a regulatory element (i.e., promoter) which is responsive to the multimerization of the chimeric proteins. The design and preparation of illustrative components and their use in so engineered cells is described in WO99/36553 and WO96/41865 and the other international patent applications referred to in this and the foregoing section. (See also W099/10510 for additional guidance on the design, assembly and delivery of nucleic acids to render cells and animals responsive to rapalogs of interest and for additional guidance on applications of such systems.) The cells are grown or maintained in culture. A rapalog is added to the culture medium and after a suitable incubation period (to permit gene expression and secretion, e.g. several hours or overnight) the presence of the reporter gene product is measured. Positive results, i.e., multimerization, correlates with transcription of the reporter gene as observed by the appearance of the reporter gene product. The reporter gene product may be a conveniently detectable protein (e.g. by ELISA) or may catalyze the production of a conveniently detectable product (e.g. colored). Materials and methods for producing appropriate cell lines for conducting such assays are disclosed in the international patent applications cited above in this section.
# 2. EC50 values of the various compounds was measured in a transcription assay using genetically engineered HD1080 cells which constitutively express transcriptional switch components containing FKBP and 2098L mutant FRB domains, respectively and which regulatably express secreted alkaline phosphatase (SEAP) in the presence of a compound which multimerizes the switch components. The assay is a literature assay. See WO 99/36553, e.g. Example 12, pages 120–121 (& FIG. 2D) […]
# murine splenocyte = murine splenocyte assay for immunosuppressive activity; assay type: cell-based; conditions: read-out: Splenocyte IC50
# Experimental: 3. Conventional murine splenocyte assay for immunosuppressive activity.
# (§1) A diverse group of C7-modified 28-epirapalogs were prepared as described in Example 4.
# FKBP = FKBP (Homo sapiens, UniProt P62942); test: FKBP competitive binding assay based on fluorescence polarization (FP); conditions: competitive FP binding
# Experimental: A Competitive Binding FP Assay is described in detail in WO99/36553 and WO96/41865. That assay permits the in vitro measurement of an IC50 value for a given compound which reflects its ability to bind to an FKBP-protein in competition with a labeled FKBP ligand, such as, for example, FK506.
# as §1
# [2] = cellular transcription assay, methods of Example 2.5, read-out: TXN 2098L EC50
# [3] = mouse splenocyte assay, methods of Example 2.5
# [4] = methods of Example 2.5, read-out: FKBP IC50
# [5] = Mus musculus, Splenocyte, mouse splenocyte assay, methods of Example 2.5
# [6] = read-out: TXN 2098L EC50, cellular transcription assay, methods of Example 2.5
# [7] = FKBP IC50 (nM), methods of Example 2.5
# T1 sequence (P62942 2-108 limits assumed, stated change not applied, other chains not shown): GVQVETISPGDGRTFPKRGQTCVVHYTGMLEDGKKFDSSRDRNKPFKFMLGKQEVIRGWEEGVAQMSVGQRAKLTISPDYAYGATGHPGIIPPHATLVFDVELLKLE
# FKBP, sequence (P62942 whole entry): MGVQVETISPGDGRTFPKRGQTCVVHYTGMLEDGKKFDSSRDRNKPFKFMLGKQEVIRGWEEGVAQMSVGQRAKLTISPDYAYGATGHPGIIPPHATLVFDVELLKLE
"EC50 [1, 2]",IC50 (FKBP; [4]),TXN 2098L peak relative to rapamycin peak [1],IC50 (murine splenocyte; [5]),Compound,IC50 (murine splenocyte; [3]),further results
9 nM,19 nM,(−) (peak was <80% rapamycin peak),200 to 1950 nM,CO[C@@H]1C[C@H](C[C@@H](C)[C@@H]2CC(=O)[C@H](C)/C=C(\C)[C@H](O)[C@@H](OC)C(=O)[C@H](C)C[C@H](C)/C=C/C=C/C=C(\C)[C@H](Oc3ccccc3)C[C@@H]3CC[C@@H](C)[C@@](O)(O3)C(=O)C(=O)N3CCCC[C@H]3C(=O)O2)CC[C@H]1O [28-epi-7R-phenyloxy],,
24 nM,16 nM,,7 nM,CO[C@@H]1C[C@H](C[C@@H](C)[C@@H]2CC(=O)[C@H](C)/C=C(\C)[C@H](O)[C@@H](OC)C(=O)[C@H](C)C[C@H](C)/C=C/C=C/C=C(\C)[C@@H](NS(C)(=O)=O)C[C@@H]3CC[C@@H](C)[C@@](O)(O3)C(=O)C(=O)N3CCCC[C@H]3C(=O)O2)CC[C@H]1O [28-epi-7S-methanesulfonamide],,
8 nM,163 nM,(−) (peak was <80% rapamycin peak),1150 nM,CO[C@@H]1C[C@H](C[C@@H](C)[C@@H]2CC(=O)[C@H](C)/C=C(\C)[C@H](O)[C@@H](OC)C(=O)[C@H](C)C[C@H](C)/C=C/C=C/C=C(\C)[C@H](N(C)C(=O)OCc3ccccc3)C[C@@H]3CC[C@@H](C)[C@@](O)(O3)C(=O)C(=O)N3CCCC[C@H]3C(=O)O2)CC[C@H]1O [28-epi-7R-N-Me-benzylcarbamate],,
8 nM,36 nM,(−) (peak was <80% rapamycin peak),478 to 2500 nM,CO[C@@H]1C[C@H](C[C@@H](C)[C@@H]2CC(=O)[C@H](C)/C=C(\C)[C@H](O)[C@@H](OC)C(=O)[C@H](C)C[C@H](C)/C=C/C=C/C=C(\C)[C@@H](Oc3ccccc3)C[C@@H]3CC[C@@H](C)[C@@](O)(O3)C(=O)C(=O)N3CCCC[C@H]3C(=O)O2)CC[C@H]1O [28-epi-7S-phenyloxy],,
35 nM,19 nM,(+) (peak was >125% rapamycin peak),2630 nM,"CCCS(=O)(=O)N(C)C1CC2CCC(C)C(O)(O2)C(=O)C(=O)N2CCCCC2C(=O)OC(C(C)CC2CCC(O)C(OC)C2)CC(=O)C(C)C=C(C)C(O)C(OC)C(=O)C(C)CC(C)C=CC=CC=C1C (single isomer, unassigned) [28-epi-7S-N-Me-propanesulfonamide]",,
15 nM,33 nM,,,"COc1ccccc1COC1CC2CCC(C)C(O)(O2)C(=O)C(=O)N2CCCCC2C(=O)OC(C(C)CC2CCC(O)C(OC)C2)CC(=O)C(C)C=C(C)C(O)C(OC)C(=O)C(C)CC(C)C=CC=CC=C1C (single isomer, unassigned) [28-epi-7S-2′-methoxybenzyloxy]",25 nM,
11 nM,9.2 nM,(+) (peak was >125% rapamycin peak),152 nM,CCCCS(=O)(=O)N[C@H]1C[C@@H]2CC[C@@H](C)[C@@](O)(O2)C(=O)C(=O)N2CCCC[C@H]2C(=O)O[C@H]([C@H](C)C[C@@H]2CC[C@@H](O)[C@H](OC)C2)CC(=O)[C@H](C)/C=C(\C)[C@H](O)[C@@H](OC)C(=O)[C@H](C)C[C@H](C)/C=C/C=C/C=C/1C [28-epi-7S-butanesulfonamide],,
8 nM,37 nM,,166 nM,CO[C@@H]1C[C@H](C[C@@H](C)[C@@H]2CC(=O)[C@H](C)/C=C(\C)[C@H](O)[C@@H](OC)C(=O)[C@H](C)C[C@H](C)/C=C/C=C/C=C(\C)[C@H](N(C)S(C)(=O)=O)C[C@@H]3CC[C@@H](C)[C@@](O)(O3)C(=O)C(=O)N3CCCC[C@H]3C(=O)O2)CC[C@H]1O [28-epi-7R-N-Me-methanesulfonamide],,
,,,,COCO[C@@H]1CC[C@@H](C[C@@H](C)[C@@H]2CC(=O)[C@H](C)/C=C(\C)[C@H](O)[C@@H](OC)C(=O)[C@H](C)C[C@H](C)/C=C/C=C/C=C(\C)[C@@H](OC)C[C@@H]3CC[C@@H](C)[C@@](O)(O3)C(=O)C(=O)N3CCCC[C@H]3C(=O)O2)C[C@H]1OC [43-O-MOM-28-epirapamycin],,"EC50 ([1]; HD1080 cells, FKBP and 2098L mutant FRB switch, SEAP reporter, read-out: txn 2098L EC50): 7 nM; IC50 (murine splenocyte; Mus musculus, Splenocyte, murine splenocyte assay, immunosuppressive activity): 0.6 to 1.6 nM; IC50 (FKBP; fluorescein-labelled FK506 probe (AP1491), read-out: FKBP binding IC50): 27 nM"

Compound,"EC50 [1, 2]",IC50 (FKBP; [4]),TXN 2098L peak relative to rapamycin peak [1],IC50 (murine splenocyte; [5]),IC50 (murine splenocyte; [3]),further results
CO[C@@H]1C[C@H](C[C@@H](C)[C@@H]2CC(=O)[C@H](C)/C=C(\C)[C@H](O)[C@@H](OC)C(=O)[C@H](C)C[C@H](C)/C=C/C=C/C=C(\C)[C@@H](NS(=O)(=O)N(C)c3ccccc3)C[C@@H]3CC[C@@H](C)[C@@](O)(O3)C(=O)C(=O)N3CCCC[C@H]3C(=O)O2)CC[C@H]1O [28-epi-7S-methylphenylsulfamide],28 nM,11 nM,,,564 nM,
COC1CC(CC(C)C2CC(=O)C(C)C=C(C)C(O)C(OC)C(=O)C(C)CC(C)C=CC=CC=C(C)C(NS(=O)(=O)N(C)C)CC3CCC(C)C(O)(O3)C(=O)C(=O)N3CCCCC3C(=O)O2)CCC1O (stereo not drawn) [28-epi-7S-dimethylsulfamide],20 nM,13 nM,(+) (peak was >125% rapamycin peak),,879 nM,
CCN([C@@H]1C[C@@H]2CC[C@@H](C)[C@@](O)(O2)C(=O)C(=O)N2CCCC[C@H]2C(=O)O[C@H]([C@H](C)C[C@@H]2CC[C@@H](O)[C@H](OC)C2)CC(=O)[C@H](C)/C=C(\C)[C@H](O)[C@@H](OC)C(=O)[C@H](C)C[C@H](C)/C=C/C=C/C=C/1C)S(C)(=O)=O [28-epi-7R-N-Et-methanesulfonamide],,,(+) (peak was >125% rapamycin peak),189 nM,,"EC50 [1, 6]: 8 nM; IC50 (FKBP; [7]): 31 nM"
COC1CC(CC(C)C2CC(=O)C(C)C=C(C)C(O)C(OC)C(=O)C(C)CC(C)C=CC=CC=C(C)C(NC(=O)OCc3ccccc3)CC3CCC(C)C(O)(O3)C(=O)C(=O)N3CCCCC3C(=O)O2)CCC1O (stereo not drawn) [28-epi-7R-benzylcarbamate],9 nM,12 nM,(+) (peak was >125% rapamycin peak),,2260 nM,
28-epi-7S-dimethylthiophene,30 nM,78 nM,,,1240 to 1540 nM,
28-epi-7S-(3′-methyl)-but-4′-enyloxy,16 nM,27 nM,,,718 nM,
C=CCO[C@H]1C[C@@H]2CC[C@@H](C)[C@@](O)(O2)C(=O)C(=O)N2CCCC[C@H]2C(=O)O[C@H]([C@H](C)C[C@@H]2CC[C@@H](O)[C@H](OC)C2)CC(=O)[C@H](C)/C=C(\C)[C@H](O)[C@@H](OC)C(=O)[C@H](C)C[C@H](C)/C=C/C=C/C=C/1C [28-epi-7S-allyloxy],,,,1800 nM,,"EC50 [1, 6]: 8 nM; IC50 (FKBP; [7]): 18 nM"
CO[C@@H]1C[C@H](C[C@@H](C)[C@@H]2CC(=O)[C@H](C)/C=C(\C)[C@H](O)[C@@H](OC)C(=O)[C@H](C)C[C@H](C)/C=C/C=C/C=C(\C)[C@H](N(C)S(=O)(=O)c3ccc(C)cc3)C[C@@H]3CC[C@@H](C)[C@@](O)(O3)C(=O)C(=O)N3CCCC[C@H]3C(=O)O2)CC[C@H]1O [28-epi-7R-N-Me-p-toluenesulfonamide],,,,12 nM,,"EC50 [1, 6]: 8 nM; IC50 (FKBP; [7]): 34 nM"
CO[C@@H]1C[C@H](C[C@@H](C)[C@@H]2CC(=O)[C@H](C)/C=C(\C)[C@H](O)[C@@H](OC)C(=O)[C@H](C)C[C@H](C)/C=C/C=C/C=C(\C)[C@@H](N(C)C(=O)OCc3ccccc3)C[C@@H]3CC[C@@H](C)[C@@](O)(O3)C(=O)C(=O)N3CCCC[C@H]3C(=O)O2)CC[C@H]1O [28-epi-7S-N-Me-benzylcarbamate],9 nM,40 nM,,,158 nM,
C=CCO[C@@H]1C[C@@H]2CC[C@@H](C)[C@@](O)(O2)C(=O)C(=O)N2CCCC[C@H]2C(=O)O[C@H]([C@H](C)C[C@@H]2CC[C@@H](O)[C@H](OC)C2)CC(=O)[C@H](C)/C=C(\C)[C@H](O)[C@@H](OC)C(=O)[C@H](C)C[C@H](C)/C=C/C=C/C=C/1C [28-epi-7R-allyloxy],,,,3400 nM,,"EC50 [1, 6]: 25 nM; IC50 (FKBP; [7]): 11 nM"
